# Values of other authors as cited in patent US20200339511A1, “Substituted indoline derivatives as dengue viral replication inhibitors” (priority 2016, published 2020).
# Tested on: DENV-2
# Conditions: analogous DENV-2 antiviral assay, reported activity; cited from earlier work
smiles,measurement,value
COc1cccc(NC(C(=O)N2CCc3ccccc32)c2ccccc2)c1 (stereo not shown) [(56) of WO-2013/045516],EC50,0.45 µM
